# Measured values: patent US11987588B2, “Modulators of the beta-3 adrenergic receptor useful for the treatment or prevention of heart failure and disorders related thereto” (Arena Pharmaceuticals, Inc., priority 2017, dated 2024)
# Biological target: Beta-3 Adrenergic Receptor (Homo sapiens (Human), UniProt P13945)
# Assay: Homogeneous Time-Resolved Fluorescence (HTRF) cAMP antagonist assay, IC50 determination
# Type: cell-based
# Conditions: CHO-K1 cells stably expressing recombinant receptor, isoproterenol at EC90
# Procedure, shortened: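 Antagonist mode: isoproterenol at its predetermined EC90 added after compound to recombinant CHO-K1 cells in IBMX-containing PBS, 1 h, room temperature. Compounds tested as 5-fold, 10-point dilutions, top final typically 10 or 100 μM. HTRF signal converted to cAMP via standard curve, giving IC50.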
# Beta-3 Adrenergic Receptor, sequence (P13945 whole entry, species assumed): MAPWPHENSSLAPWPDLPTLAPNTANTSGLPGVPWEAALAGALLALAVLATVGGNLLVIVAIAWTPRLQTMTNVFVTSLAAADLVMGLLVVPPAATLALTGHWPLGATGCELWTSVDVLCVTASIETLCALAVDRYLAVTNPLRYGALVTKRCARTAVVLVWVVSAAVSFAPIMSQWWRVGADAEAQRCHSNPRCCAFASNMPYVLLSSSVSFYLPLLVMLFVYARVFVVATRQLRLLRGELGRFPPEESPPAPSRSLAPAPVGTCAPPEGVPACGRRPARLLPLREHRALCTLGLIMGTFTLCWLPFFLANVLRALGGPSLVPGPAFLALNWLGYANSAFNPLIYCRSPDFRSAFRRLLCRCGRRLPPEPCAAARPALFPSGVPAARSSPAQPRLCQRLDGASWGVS
row,Compound,IC50 [nM]
1,"CNS(=O)(=O)c1cccc(OC[C@@H](O)CNC2COC3(CCN(S(=O)(=O)c4cccc(-c5cncc(C)c5)c4)CC3)C2)c1 (stereo partly drawn) [Compound 110, 3-((2S)-2-hydroxy-3-(8-(3-(5-methylpyridin-3-yl)phenylsulfonyl)-1-oxa-8-azaspiro[4.5]decan-3-ylamino)propoxy)-N-methylbenzenesulfonamide]",19
2,"CNS(=O)(=O)c1cccc(OC[C@@H](O)CNC2COC3(CCN(S(=O)(=O)c4cc(S(=O)(=O)c5ccccc5)cs4)CC3)C2)c1 (stereo partly drawn) [Compound 190, 3-((2S)-2-hydroxy-3-(8-(4-(phenylsulfonyl)thiophen-2-ylsulfonyl)-1-oxa-8-azaspiro[4.5]decan-3-ylamino)propoxy)-N-methylbenzenesulfonamide]",18
3,"CNS(=O)(=O)c1cccc(OC[C@@H](O)CN[C@H]2COC3(CCN(S(=O)(=O)c4cc5c(nc4O)OCCN5C)CC3)C2)c1 [Compound 454, 3-((S)-2-hydroxy-3-((R)-8-(6-hydroxy-1-methyl-2,3-dihydro-1H-pyrido[2,3-b][1,4]oxazin-7-ylsulfonyl)-1-oxa-8-azaspiro[4.5]decan-3-ylamino)propoxy)-N-methylbenzenesulfonamide]",453
4,"CNS(=O)(=O)c1cccc(OC[C@@H](O)CN[C@H]2COC3(CCN(S(=O)(=O)c4cnc5c(c4C)N(C)CCO5)CC3)C2)c1 [Compound 467, 3-((S)-3-((R)-8-(1,8-dimethyl-2,3-dihydro-1H-pyrido[2,3-b][1,4]oxazin-7-ylsulfonyl)-1-oxa-8-azaspiro[4.5]decan-3-ylamino)-2-hydroxypropoxy)-N-methylbenzenesulfonamide]",33.4
5,"CNS(=O)(=O)c1cccc(OC[C@@H](O)CNC2COC3(CCN(S(=O)(=O)c4cc(F)ccc4OC)CC3)C2)c1 (stereo partly drawn) [Compound 238, 3-((2S)-3-(8-(5-fluoro-2-methoxyphenylsulfonyl)-1-oxa-8-azaspiro[4.5]decan-3-ylamino)-2-hydroxypropoxy)-N-methylbenzenesulfonamide]",38.4
6,"CNS(=O)(=O)c1cccc(OC[C@@H](O)CNC2COC3(CCN(S(=O)(=O)c4cccc(-c5cnn(Cc6ccccc6)c5)c4)CC3)C2)c1 (stereo partly drawn) [Compound 77, 3-((2S)-3-(8-(3-(1-benzyl-1H-pyrazol-4-yl)phenylsulfonyl)-1-oxa-8-azaspiro[4.5]decan-3-ylamino)-2-hydroxypropoxy)-N-methylbenzenesulfonamide]",17.5
7,"Cc1ccc2c(O)c(S(=O)(=O)N3CCC4(CC3)C[C@@H](NC[C@H](O)COc3cccc(S(N)(=O)=O)c3)CO4)cnc2c1 [Compound 542, 3-((S)-2-hydroxy-3-((R)-8-(4-hydroxy-7-methylquinolin-3-ylsulfonyl)-1-oxa-8-azaspiro[4.5]decan-3-ylamino)propoxy)benzenesulfonamide]",15.6
8,"CNS(=O)(=O)c1cccc(OC[C@@H](O)CNC2COC3(CCN(S(=O)(=O)c4cc(C)cc(Br)c4)CC3)C2)c1 (stereo partly drawn) [Compound 219, 3-((2S)-3-(8-(3-bromo-5-methylphenylsulfonyl)-1-oxa-8-azaspiro[4.5]decan-3-ylamino)-2-hydroxypropoxy)-N-methylbenzenesulfonamide]",25.3
9,"CCNS(=O)(=O)c1cccc(OC[C@@H](O)CNC2COC3(CCN(S(=O)(=O)c4ccc5nsnc5c4)CC3)C2)c1 (stereo partly drawn) [Compound 229, 3-((2S)-3-(8-(benzo[c][1,2,5]thiadiazol-5-ylsulfonyl)-1-oxa-8-azaspiro[4.5]decan-3-ylamino)-2-hydroxypropoxy)-N-ethylbenzenesulfonamide]",272
10,"CNS(=O)(=O)c1cccc(OC[C@@H](O)CN[C@H]2COC3(CCN(S(=O)(=O)c4cnc5cccnc5c4)CC3)C2)c1 [Compound 485, 3-((S)-3-((R)-8-(1,5-naphthyridin-3-ylsulfonyl)-1-oxa-8-azaspiro[4.5]decan-3-ylamino)-2-hydroxypropoxy)-N-methylbenzenesulfonamide]",35.8
11,"CCOc1nc2c(cc1S(=O)(=O)N1CCC3(CC1)C[C@H](NC[C@H](O)COc1cccc(S(=O)(=O)NC)c1)CO3)N(C)CCO2 [Compound 450, 3-((S)-3-((S)-8-(6-ethoxy-1-methyl-2,3-dihydro-1H-pyrido[2,3-b][1,4]oxazin-7-ylsulfonyl)-1-oxa-8-azaspiro[4.5]decan-3-ylamino)-2-hydroxypropoxy)-N-methylbenzenesulfonamide]",28.2
12,"NS(=O)(=O)c1cccc(OC[C@@H](O)CN[C@H]2COC3(CCN(S(=O)(=O)c4cnc5ccccc5c4)CC3)C2)c1 [Compound 562, 3-((S)-2-hydroxy-3-((R)-8-(quinolin-3-ylsulfonyl)-1-oxa-8-azaspiro[4.5]decan-3-ylamino)propoxy)benzenesulfonamide]",16.3
13,"C[C@@H](O)CNS(=O)(=O)c1cccc(OC[C@@H](O)CN[C@H]2COC3(CCN(S(=O)(=O)c4cnc5c(c4)N(C)CCO5)CC3)C2)c1 [Compound 436, 3-((S)-2-hydroxy-3-((R)-8-(1-methyl-2,3-dihydro-1H-pyrido[2,3-b][1,4]oxazin-7-ylsulfonyl)-1-oxa-8-azaspiro[4.5]decan-3-ylamino)propoxy)-N—((R)-2-hydroxypropyl)benzenesulfonamide]",367
14,"CNS(=O)(=O)c1cccc(OC[C@@H](O)CNC2COC3(CCN(S(=O)(=O)c4cccc(-c5cc[nH]n5)c4)CC3)C2)c1 (stereo partly drawn) [Compound 84, 3-((2S)-3-(8-(3-(1H-pyrazol-3-yl)phenylsulfonyl)-1-oxa-8-azaspiro[4.5]decan-3-ylamino)-2-hydroxypropoxy)-N-methylbenzenesulfonamide]",9.09
15,"CNC(=O)[C@@H](NS(=O)(=O)c1cccc(OC[C@@H](O)CNC2COC3(CCN(S(=O)(=O)c4ccc5ccccc5c4)CC3)C2)c1)[C@@H](C)O (stereo partly drawn) [Compound 92, (2S,3R)-3-hydroxy-2-(3-((2S)-2-hydroxy-3-(8-(naphthalen-2-ylsulfonyl)-1-oxa-8-azaspiro[4.5]decan-3-ylamino)propoxy)phenylsulfonamido)-N-methylbutanamide]",1990
16,"CN(C)S(=O)(=O)c1cccc(OC[C@@H](O)CNC2COC3(CCN(S(=O)(=O)c4cccc(-c5ccc(CC#N)cc5)c4)CC3)C2)c1 (stereo partly drawn) [Compound 277, 3-((2S)-3-(8-(4′-(cyanomethyl)biphenyl-3-ylsulfonyl)-1-oxa-8-azaspiro[4.5]decan-3-ylamino)-2-hydroxypropoxy)-N,N-dimethylbenzenesulfonamide]",46.7
17,"CNS(=O)(=O)c1cccc(OC[C@@H](O)CNC2COC3(CCN(S(=O)(=O)c4cccc(-c5ccc(CN[C@@H](CO)C(N)=O)cc5)c4)CC3)C2)c1 (stereo partly drawn) [Compound 345, (2S)-3-hydroxy-2-((3′-(3-((S)-2-hydroxy-3-(3-(N-methylsulfamoyl)phenoxy)propylamino)-1-oxa-8-azaspiro[4.5]decan-8-ylsulfonyl)biphenyl-4-yl)methylamino)propanamide]",107
18,"CNS(=O)(=O)c1cccc(OC[C@@H](O)CNC2COC3(CCN(S(=O)(=O)c4cccc5ccccc45)CC3)C2)c1 (stereo partly drawn) [Compound 55, 3-((2S)-2-hydroxy-3-(8-(naphthalen-1-ylsulfonyl)-1-oxa-8-azaspiro[4.5]decan-3-ylamino)propoxy)-N-methylbenzenesulfonamide]",18
19,"CNS(=O)(=O)c1cccc(OC[C@@H](O)CNC2COC3(CCN(S(=O)(=O)c4cccc(-c5cccnc5)c4)CC3)C2)c1 (stereo partly drawn) [Compound 88, 3-((2S)-2-hydroxy-3-(8-(3-(pyridin-3-yl)phenylsulfonyl)-1-oxa-8-azaspiro[4.5]decan-3-ylamino)propoxy)-N-methylbenzenesulfonamide]",9.82
20,"Cc1noc(C)c1S(=O)(=O)N1CCC2(CC1)CC(NC[C@H](O)COc1cccc(S(=O)(=O)N(C)C)c1)CO2 (stereo partly drawn) [Compound 254, 3-((2S)-3-(8-(3,5-dimethylisoxazol-4-ylsulfonyl)-1-oxa-8-azaspiro[4.5]decan-3-ylamino)-2-hydroxypropoxy)-N,N-dimethylbenzenesulfonamide]",97.3
21,"CNS(=O)(=O)c1cccc(OC[C@@H](O)CNC2COC3(CCN(S(=O)(=O)c4cncc(OC)c4)CC3)C2)c1 (stereo partly drawn) [Compound 386, 3-((2S)-2-hydroxy-3-(8-(5-methoxypyridin-3-ylsulfonyl)-1-oxa-8-azaspiro[4.5]decan-3-ylamino)propoxy)-N-methylbenzenesulfonamide]",57.9
22,"CNS(=O)(=O)c1cccc(OC[C@@H](O)CN[C@H]2COC3(CCN(c4nccc(C(=O)O)n4)CC3)C2)c1 [Compound 582, 2-((R)-3-((S)-2-hydroxy-3-(3-(N-methylsulfamoyl)phenoxy)propylamino)-1-oxa-8-azaspiro[4.5]decan-8-yl)pyrimidine-4-carboxylic acid]",100000
23,"CNS(=O)(=O)c1cccc(OC[C@@H](O)CN[C@H]2COC3(CCN(S(=O)(=O)c4cnc5c(c4)N(C)CCO5)CC3)C2)c1 [Compound 414, 3-((S)-2-hydroxy-3-((R)-8-(1-methyl-2,3-dihydro-1H-pyrido[2,3-b][1,4]oxazin-7-ylsulfonyl)-1-oxa-8-azaspiro[4.5]decan-3-ylamino)propoxy)-N-methylbenzenesulfonamide]",16.8
24,"CN(C)S(=O)(=O)c1cccc(OC[C@@H](O)CNC2COC3(CCN(S(=O)(=O)c4cccc(-c5ccc(CN)cc5)c4)CC3)C2)c1 (stereo partly drawn) [Compound 273, 3-((2S)-3-(8-(4′-(aminomethyl)biphenyl-3-ylsulfonyl)-1-oxa-8-azaspiro[4.5]decan-3-ylamino)-2-hydroxypropoxy)-N,N-dimethylbenzenesulfonamide]",15.5
25,"CCn1cc(S(=O)(=O)N2CCC3(CC2)C[C@@H](NC[C@H](O)COc2cccc(S(=O)(=O)NC)c2)CO3)c(=O)c2ccc(C)cc21 [Compound 531, 3-((S)-3-((R)-8-(1-ethyl-7-methyl-4-oxo-1,4-dihydroquinolin-3-ylsulfonyl)-1-oxa-8-azaspiro[4.5]decan-3-ylamino)-2-hydroxypropoxy)-N-methylbenzenesulfonamide]",50.5
